Source: publication PMC5904360, “Soluble N-Ethylmaleimide-Sensitive Factor Attachment Protein Receptor-Derived Peptides for Regulation of Mast Cell Degranulation” (Frontiers in Immunology, 2018)

How the values were obtained:
NC/Nga mice = assay: DNCB-induced atopic dermatitis-like skin lesions; assay type: in vivo, mouse; conditions: 0.3 and 3% peptide/day or 0.1% dexamethasone/day for 4 weeks, n = 10 per group (Figure 5D)
Source text: Seven-week-old NC/Nga mice were purchased from the Shizuoka Laboratory Animal Center (Shizuoka, Japan) and allowed to adapt to the environment for a week prior to use. The procedures for the induction of atopic dermatitis-like symptoms in mice using 1-chloro-2,4-dinitro-benzene (DNCB) have been well described previously ([27]). Briefly, the dorsal hair of the mice was shaved 2 days before DNCB administration. For the induction of atopic dermatitis, 1% DNCB was applied to the dorsal skin of the mice twice weekly for 7 days and then 0.2% DNCB was applied thrice weekly for 21 days. The mice were divided into the following […] treatment groups (n = 10 per group): 0.3 and 3% Vp2N/day, 0.3 and 3% Vp8N/day, 0.1% dexamethasone/day, and vehicle only, dorsally administered from 9 to 13 weeks of age. As a negative control for atopic dermatitis, NC/Nga mice that were not treated with DNCB were maintained under pathogen-free conditions. Laboratory animal breeding management was based on the “Guide for the Care and Use of Laboratory Animals,” and all experiments were approved by the Institutional Animal Care and Use Committees of Gyeonggi Institute of Science & Technology.

[1] = topical glucocorticosteroid; cited from earlier work
SN23-Syn4-Vp8 complex = biological target: T1, SN23-Syn4-Vp8 complex (Rattus norvegicus, UniProt O70377+Q08850+Q9WUF4); assay: Co-immunoprecipitation of SNARE complexes in activated RBL-2H3 cells, anti-SNAP-23 blot; assay type: cell-based; conditions: peptides added to the medium after A23187 pretreatment; IP of Vp8, blot anti-SNAP-23 (Figure 4C)
T1 construct: Lysates of RBL-2H3 cells; endogenous in cells; host or cells: RBL-2H3 (ATCC CRL-2256)
T1 sequence (Q08850 1-298): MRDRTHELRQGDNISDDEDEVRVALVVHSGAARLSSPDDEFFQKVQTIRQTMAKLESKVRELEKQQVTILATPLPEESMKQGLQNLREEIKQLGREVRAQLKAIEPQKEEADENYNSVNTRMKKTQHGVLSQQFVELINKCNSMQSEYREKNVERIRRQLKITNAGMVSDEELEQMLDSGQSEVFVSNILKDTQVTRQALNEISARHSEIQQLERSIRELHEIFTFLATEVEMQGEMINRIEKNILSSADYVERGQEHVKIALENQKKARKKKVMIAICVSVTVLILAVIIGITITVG
T1 sequence (O70377 1-210): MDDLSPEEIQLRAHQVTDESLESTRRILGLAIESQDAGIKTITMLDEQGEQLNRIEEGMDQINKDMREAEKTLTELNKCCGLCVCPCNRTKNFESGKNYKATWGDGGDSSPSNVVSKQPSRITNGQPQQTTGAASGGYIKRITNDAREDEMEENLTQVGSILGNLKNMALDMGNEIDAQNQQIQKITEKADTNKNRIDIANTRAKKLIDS
T1 sequence (Q9WUF4 1-100): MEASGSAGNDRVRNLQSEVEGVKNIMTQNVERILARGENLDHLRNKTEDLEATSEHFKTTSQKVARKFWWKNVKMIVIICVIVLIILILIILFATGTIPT
Procedure: (§1) Lysates of RBL-2H3 cells (0.5–1 × 10^6 cells), which were obtained by the addition of 1 mL lysis buffer (50 mM Tris–HCl, 150 mM NaCl, 1% Triton X-100™, 1 mM EDTA, pH 7.5) supplemented with a protease inhibitor cocktail (Calbiochem®, Merck Millipore, Billerica, MA, USA), were centrifuged at 13,000 g at 4°C to remove cell debris and precleared with 100 µL protein G Sepharose® (GE Healthcare) for 2 h at 4°C. The precleared lysates were incubated with antibodies against SNARE proteins (Syn4, SNAP-23, VAMP2, and VAMP8) for 2 h at 4°C for binding, and then the antibody–antigen complexes were precipitated by incubation with a protein G slurry overnight with constant shaking. After an extensive washing step with lysis buffer, an immunoblotting analysis was performed for the precipitates. The immunoprecipitated proteins and cell lysates were electrophoresed on 12% sodium dodecyl sulfate-polyacrylamide gel electrophoresis gels and then transferred to nitrocellulose blotting membranes (GE Healthcare). After blocking the membranes in TBST (10 mM Tris–HCl, 150 mM NaCl, and 0.05% Tween® 20, pH 8) containing 0.5% BSA and 5% skim milk for 1 h at room temperature, primary anti-SNAP-23 antibody (1:1,000 dilution) in TBST supplemented with 1% BSA and 0.01% sodium azide was added and incubated at 4°C overnight. The membranes were washed with TBST, treated with a horseradish peroxidase-conjugated secondary anti-mouse IgG antibody (A4416, Sigma-Aldrich), and visualized using enhanced chemiluminescence solution for the development of a luminescent signal.

SN23-Syn4-Vp2 complex = biological target: T2, SN23-Syn4-Vp2 complex (Rattus norvegicus, UniProt O70377+P63045+Q08850); assay: as above; assay type: cell-based; conditions: peptides added to the medium after A23187 pretreatment; IP of Vp2, blot anti-SNAP-23 (Figure 4C)
T2 construct: Lysates of RBL-2H3 cells; endogenous in cells; host or cells: RBL-2H3 (ATCC CRL-2256)
T2 sequence (P63045 whole entry, one chain of several): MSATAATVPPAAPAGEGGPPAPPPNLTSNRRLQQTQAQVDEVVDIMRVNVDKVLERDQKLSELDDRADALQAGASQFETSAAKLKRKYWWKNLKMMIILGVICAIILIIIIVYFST
Procedure: as §1

RBL-2H3 mast cells [2] = assay: Degranulation assay, β-hexosaminidase release; assay type: cell-based, rat
RBL-2H3 mast cells [3] = assay: Degranulation assay, histamine release (enzyme immunoassay); assay type: cell-based, rat
[4] = cells pretreated with A23187, sensitized with DNP-IgE, then PTD-conjugated peptide (Figure 4B)

| SNARE complex formation in cells (amount of SN23-Syn4-Vp8 complex) (SN23-Syn4-Vp8 complex) | SNARE complex formation in cells (amount of SN23-Syn4-Vp2 complex) (SN23-Syn4-Vp2 complex) | Structure (SMILES) | ear thickness (NC/Nga mice) | side effect [1] | reduction of β-hexosaminidase release (RBL-2H3 mast cells [2]; 10 µM PTD-fused peptide without SLO (LY294002 as positive control), DNP-BSA stimulation, no A23187 pretreatment, three independent experiments (Figure 2A gray bars, 2C)) | inhibition of β-hexosaminidase release after A23187 pretreatment (RBL-2H3 mast cells [2]; [4]) | inhibition of histamine release (RBL-2H3 mast cells [3]; PTD-conjugated peptide without SLO (LY294002 as positive control), DNP-IgE sensitized, DNP-BSA stimulation, no A23187 pretreatment, three independent experiments (Figure 2C)) | inhibition of histamine release after A23187 pretreatment (RBL-2H3 mast cells [3]; [4]) |
| --- | --- | --- | --- | --- | --- | --- | --- | --- |
| – | – | C[C@@H]1C[C@H]2[C@@H]3CCC4=CC(=O)C=C[C@]4(C)[C@@]3(F)[C@@H](O)C[C@]2(C)[C@@]1(O)C(=O)CO [Dexamethasone, dexamethasone, reference compound] | recovered the ear thickness to the normal range | skin thinning | – | – | – | – |
| did not inhibit | did not inhibit | O=c1cc(N2CCOCC2)oc2c(-c3ccccc3)cccc12 [LY294002, reference compound] | – | – | efficiently inhibited | efficiently inhibited | efficiently inhibited | efficiently inhibited |
